In patent US11938138B2, “Methods for improved treatment of cancer” (Washington University, priority 2020, dated 2024):
“Also recorded” adds a separate entry of the source.

Legend:
K562 cells [1] = assay: JQ1 treatment of K562 cells, CD24 surface staining by flow cytometry; assay type: cell-based, human
Protocol: HCT-116, N2a, HEK293T, and HepG2 cells were cultured in Dulbecco's Modified Eagle Medium (DMEM) supplemented with 10% fetal bovine serum (FBS) and 1% of either penicillin-streptomycin or antibiotic-antimycotic. K562 (unless otherwise indicated) and OCM-1A cells were grown under the same conditions as described above, replacing DMEM with RPMI 1640 Medium. Cells were grown at 37° C. with 5% carbon dioxide (CO2). Media was replenished every 2 days. HepG2 cells were a gift from the Genome Engineering iPSC Center (GEiC) at Washington University in St. Louis School of Medicine. OCM-1A cells were a gift from Dr. Michael Onken. For the CD24^high/CD24^low cell state analyses, K562 cells were grown in IMDM containing 10% v/v FBS and 1% penicillin-streptomycin at 37° C. with 5% CO2. Frozen aliquots were thawed and passaged every 48 hours until they reached a maximum concentration of 800,000 cells/ml. For experiments, cells were seeded at mid-log phase concentrations, around 400,000 cells/ml. At this point, ratio of CD24^high/CD24^low cells was approximately 1:1, as determined by flow cytometry.
CD24 surface protein was quantified using monoclonal human antibodies. Cells were spun down at 300 g for 3 minutes and washed twice with 1 mL of Cell Staining Buffer. […] All samples were measured on a Beckman-Coulter CytoFLEX S flow cytometer. […]

K562 cells [2] = assay: Imatinib treatment of K562 cells after JQ1 pretreatment (CD24, annexin V/PI staining); assay type: cell-based, human
Protocol: CD24 surface protein was quantified using monoclonal human antibodies. Cells were spun down at 300 g for 3 minutes and washed twice with 1 mL of Cell Staining Buffer. The cell pellet was then resuspended in 50 μl of Cell Staining Buffer containing 0.2 μg of either CD24-APC or CD24-BV421. The tube was rotated at 4° C. in the dark for 30 minutes. After, cells were washed twice (as before) and finally resuspended in 200 μl of Cell Staining Buffer. Cells were excited with 450/45 and 660/20 lasers (wavelength/filter bandwidth, both in nm). For concomitant analysis of DNA content, we used CD24-APC. Cells were incubated with 10 μg/ml Hoechst 33342 in 5 mL of growth medium for 30 minutes prior to the staining protocol. For simultaneous assessment of apoptosis, cells were stained with CD24-BV421. After the final wash, instead of resuspending in 200 μl of Cell Staining Buffer, cells were washed twice with Annexin V Staining Buffer. […] All samples were measured on a Beckman-Coulter CytoFLEX S flow cytometer. […]
For the analysis of annexin V levels in either JQ1- or DMSO-treated CD24^high and CD24^low cells, we used a three-way ANOVA with treatment, cell state, and day as independent variables. […] For the cell cycle inhibitor experiment, data were analyzed using a one-way ANOVA with Dunnett's post hoc test using either DMSO or EtOH (for RO-3306) as controls.

MYC and CD24 mRNA = assay: qRT-PCR for MYC and CD24 expression in K562 cells treated with JQ1; assay type: cell-based, human; settings: K562, 250 nM JQ1, first 24 hours (FIG. 14C)
Protocol: Cells were pelleted, resuspended in 300 μl of RNA CellProtect, and stored at −80° C. When we were ready to extract RNA, we thawed cells, prepared samples using QIAGEN RNEasy Plus Mini Kit, and quantitated with the Qubit RNA High Sensitivity kit. We reverse transcribed 500 ng of RNA with the SuperScript VILO cDNA Synthesis Kit in a 20 μl reaction, with the following thermocycling parameters: 25° C. for 10 minutes; 42° C. for 2 hours; 85° C. for 5 minutes. We then performed PCR with 2 μl of the RT product as template, 1 μl each of forward and reverse primer (10 μM), 6 μl ddH2O, and 10 μl PowerUp SYBR Green Master Mix. We ran the PCR on an ABI QuantStudio 3 with the following settings: 2 minutes at 50° C., then 2 minutes at 95° C. (hot start); 45 cycles of 95° C. for 15 s followed by 60° C. for 1 minute. We generated melt curves after each PCR and all samples yielded a single peak. Gene-specific primers were obtained from PrimerBank (Wang et al., 2012b). Data were normalized to the levels of […].

K562 cells [3] = assay: Cell cycle perturbation of K562 cells (DNA content, CD24, annexin V/PI); assay type: cell-based, human; settings: five days, one-way ANOVA p<0.01 (FIG. 14H)
Protocol: CD24 surface protein was quantified using monoclonal human antibodies. Cells were spun down at 300 g for 3 minutes and washed twice with 1 mL of Cell Staining Buffer. The cell pellet was then resuspended in 50 μl of Cell Staining Buffer containing 0.2 μg of either CD24-APC or CD24-BV421. The tube was rotated at 4° C. in the dark for 30 minutes. After, cells were washed twice (as before) and finally resuspended in 200 μl of Cell Staining Buffer. Cells were excited with 450/45 and 660/20 lasers (wavelength/filter bandwidth, both in nm). For concomitant analysis of DNA content, we used CD24-APC. Cells were incubated with 10 μg/ml Hoechst 33342 in 5 mL of growth medium for 30 minutes prior to the staining protocol. For simultaneous assessment of apoptosis, cells were stained with CD24-BV421. After the final wash, instead of resuspending in 200 μl of Cell Staining Buffer, cells were washed twice with Annexin V Staining Buffer. Cells were then incubated in 50 μl Annexin V Staining Buffer containing 0.2 μg Annexin V-FITC and 100 μg/ml propidium iodide (PI). The reaction was incubated for 15 minutes at room temperature in the dark. Afterward, we added 150 μl of Annexin V Staining Buffer and proceeded to flow cytometry. All samples were measured on a Beckman-Coulter CytoFLEX S flow cytometer. Cells were excited with 450/45, 525/40, and 610/20 lasers. We collected 10,000 events per sample. The resulting data were processed with FlowJo Software for Mac Version 10.
We perturbed the cell cycle with lovastatin and nocodazole, two drugs classically used to synchronize cells in culture (Jackman and O'Connor, 2001), as well as the cyclin-dependent kinase inhibitors CVT-313 (Brooks et al., 1997) and RO-3306 (Vassilev et al., 2006). All drugs were dissolved in DMSO except nocodazole, which was dissolved in ethanol. […] Media was refreshed every 48 hours. After 36 hours of treatment, we stained for CD24 levels and nuclear DNA content. We gated for live, single cells using the forward scatter (FSC) and side scatter channels (SSC). Univariate cell cycle analysis was performed with FlowJo. We confirmed that all drugs perturbed cell cycle by altering the proportions of cells in either G1 or G2/M phase (FIG. 14G). […] Cultures remained under drug treatment until five days had elapsed, at which point we measured CD24 levels and stained for apoptosis (FIG. 14H). As before, we set gates to exclude debris to quantitate annexin V and PI, and measured CD24 in live cells gated on FSC and SSC. The G2 inhibitors, in particular, had very few cells in the FSC/SSC gate (typically below 5%).
For the analysis of annexin V levels in either JQ1- or DMSO-treated CD24^high and CD24^low cells, we used a three-way ANOVA with treatment, cell state, and day as independent variables. […] Multiple hypothesis correction was performed using Tukey's honestly significant difference. For the cell cycle inhibitor experiment, data were analyzed using a one-way ANOVA with Dunnett's post hoc test using either DMSO or EtOH (for RO-3306) as controls.

[4] = system: MNNG/HOS osteosarcoma cells; settings: as single agent; cited from earlier work

SMILES: Cc1sc2c(c1C)C(c1ccc(Cl)cc1)=N[C@@H](CC(=O)OC(C)(C)C)c1nnc(C)n1-2 [JQ1]
- time course of conversion to CD24low state (K562 cells [1]; K562, 250 nM JQ1, 7-day time course (FIG. 6D), rapid over first two days, stable at one week): plateaus at day four; also recorded: plateaued by day 4
- CD24low cells in the population after JQ1 exposure (K562 cells [1]; K562, 250 nM JQ1, 96 h (FIG. 6C), start equal proportions CD24high/CD24low): > 95%
- sensitivity of K562 cells to imatinib (K562 cells [2]; BET inhibitor pretreatment, then imatinib 1 μM): sensitizes K562 cells to imatinib
- fraction of CD24high cells after pretreatment (mean) (K562 cells [2]; K562, 250 nM JQ1 for five days, DMSO group 54%): 17%
- time of JQ1 exposure within which MYC mRNA levels fell (MYC and CD24 mRNA): ≤ 3 h
- reduction in CD24high cells compared with cell cycle inhibitors (K562 cells [3]; 250 nM JQ1): greatest reduction
- apoptosis compared with lovastatin, its closest competitor (K562 cells [3]; annexin V/PI): significantly less apoptosis
- tumor volume and weight [4]: had no effect on either
